{"source": "patent US10793509B2", "about": "“Compounds useful in the treatment of neoplastic diseases” (UNIVERSITÄT ZU KÖLN, priority 2013, dated 2020)", "key": {"U2932": {"test_system": "U2932", "experiment": "CellTiter-Glo ATP assay, U2932 cell line", "format": "cell-based", "details": "24 h, 0.01-1000 μM", "description": "(§1) Several cell lines (n=5) were treated with different concentrations of p-NO-ASA, B9, B12 and B13 ranging between 0.01 μM and 1000 μM for 24 hours followed by addition of luminogenic CellTiter-Glo®-reagent. […] For each cell line the order of used compound in the bar chart is from left to right as following: p-NO-ASA, B9, B12, B13.\n(§2) Treatment success in CLL may depend on cytogenetic and molecular parameters as for instance del13q or TP53 gene disruption. Therefore, the NO-ASA derivatives were examined on (chronic) B cell lymphoma cell lines with different geno- and phenotypes (JVM3, EHEB, U2932, MEC-1, GRANTA-519). The cells were treated with concentrations between 0.01 and 1000 μM for 24 h followed by the addition of luminogenic CellTiter-Glo® reagent."}, "[1]": {"test_system": "peripheral blood mononuclear cells (PBMCs) of healthy donors", "experiment": "AnnexinV/PI assay on PBMCs of healthy donors", "format": "cell-based", "details": "Homo sapiens, PBMC; 24 h incubation, 0.01-100 μM, 5*10^6 cells/ml, normalized to DMSO control; read-out: AnnexinV/PI assay EC50 PBMCs", "description": "(§3) PBMCs or CLL cells (5*10^6 cells/ml) were incubated for 24 h with different compounds at concentrations from 0.01 to 100 μM. Cell survival was normalized to DMSO control [vehicle]. See Example 1.\n(§4) Primary CLL or peripheral blood mononuclear cells of healthy donors (5*10^6/ml) were incubated for 24 h with different compounds according to the invention and NO-ASA as a control. The compounds were added in different concentrations, in particular in concentrations from 0.01-100 μM. Cell survival was assessed by AnnexinV/PI assay (Kit commercially available, e.g. by Biotium Inc, USA; or Phoenix Flow Systems, US), the results were normalized to DMSO control [vehicle] and dose response curves were calculated using a non-linear regression model."}, "[2]": {"test_system": "phosphorylated NFkappaBp65 protein", "experiment": "Western blot of NFkappaB phosphorylation status in CLL cells", "format": "cell-based, human", "details": "3 h", "description": "CLL cells were treated with B1, B9, B12 and B13 (0.1 μM, 1 μM, 10 μM) for 3 h. Untreated and DMSO (1%) treated cells served as control. GAPDH=loading control.\nThe BCR signalling pathway plays an important pathogenic role in CLL and lymphomas leading often to a constitutive active NFkappaB (in this state NFkappaB is phosphorylated). Therefore the influence of the derivatives on the phosphorylation status of NFkappaB was analyzed by Western Blot. CLL cells were treated with 0.1 μM, 1 μM or 10 μM of each derivate, respectively, for 3 h. CLL cells were treated with B1, B9, B12 and B13 (0.1 μM, 1 μM, 10 μM) for 3 h. Untreated and DMSO (1%) treated cells served as control. GAPDH=loading control."}, "MEC-1": {"test_system": "MEC-1", "experiment": "CellTiter-Glo ATP assay, MEC-1 cell line", "format": "cell-based", "details": "24 h", "description": "as §1, §2"}, "Primary CLL cells": {"test_system": "Primary CLL cells", "experiment": "AnnexinV/PI assay on primary CLL cells", "format": "cell-based, human", "description": "as §3, §4"}, "caspases 3 and 7": {"test_system": "caspases 3 and 7", "experiment": "caspase-3/7 assay in CLL cells", "format": "cell-based", "details": "Homo sapiens, CLL cell, 6 h, 0.01-20 μM, luminogenic caspase-3/7-substrate, read-out: activation of caspases 3 and 7, EC50", "excerpt": "FIG. 8 depicts the involvement of caspase-mediated apoptosis in CLL cells upon treatment with p-NO-ASA, B9, B12 and B13. Representative blots of 3 independent experiments are shown. Untreated and DMSO (1%) treated cells served as control. beta-actin=loading control (FIG. 8A). para-NO-ASA and B9 induced a concentration-dependent increase in caspase-3/7-activation (FIG. 8B).\nTo determine whether the toxicity on CLL cells is due to caspase-mediated apoptosis, the cleavage of PARP (Poly(ADP-ribose)-Polymerase 1) and XIAP (X-linked inhibitor of apoptosis) was analyzed by immunoblot. CLL cells were cultured alone, with 1% DMSO or with EC50 of p-NO-ASA, meta-NO-ASA, B9, B12 and B13 for 24 h followed by protein lysation and western blot analysis using antibodies to detect prognostic apoptotic proteins (XIAP, PARP). […] All compounds tested induced PARP and XIAP cleavage (FIG. 8A). Further a caspase-3/7 assay was carried out. CLL cells were incubated with para-NO-ASA and B9 in different concentrations ranging from 0.01 μM to 20 μM for 6 h followed by addition of luminogenic caspase-3/7-substrate. This indicates the reduction of the survival of CLL cells upon treatment with p-NO-ASA and B9 due to the induction of caspase-mediated apoptosis."}, "JVM-3": {"test_system": "JVM-3", "experiment": "CellTiter-Glo ATP assay, JVM-3 cell line", "format": "cell-based, human", "details": "24 h, 0.01-1000 μM", "description": "as §1, §2"}, "[3]": {"test_system": "SW480, MelJuso, HCC44, SH2 and COLO704 cell lines", "format": "cell-based", "details": "24 h, 0.01-100 μM", "description": "In the following experiment the possible therapeutic window for NO-ASA derivatives was investigated. […] The melanoma cell line MelJuso, the colon carcinoma cell line SW480, the small cell lung cancer cell line HCC44, the ovarian adenocarcinoma cell line COLO704 and the acute myeloid leukemia cell line SH2 were treated with concentrations of p-NO-ASA and B9, B12 and B13 in a range between 0.01 μM and 100 μM for 24 h, followed by addition of luminogenic CellTiter-Glo® reagent."}, "EHEB": {"test_system": "EHEB", "experiment": "CellTiter-Glo ATP assay, EHEB cell line", "format": "cell-based", "details": "24 h, 0.01-1000 μM", "description": "as §1, §2"}, "GRANTA-519": {"test_system": "GRANTA-519", "experiment": "CellTiter-Glo ATP assay, GRANTA-519 cell line", "format": "cell-based", "details": "24 h", "description": "as §1, §2"}, "[4]": {"details": "0.01-1000 μM, compared to B9, B12, B13"}}, "data": [{"smiles": "CC(=O)Oc1ccccc1C(=O)Oc1ccc(CO[N+](=O)[O-])cc1", "note": "[B1, 4-(nitrooxy)methyl phenyl-2-acetoxy benzoate, reference compound]", "values": [{"measurement": "ATP content in U2932", "setting": "U2932", "result": "reduced ATP content"}, {"measurement": "EC50", "setting": "[1]", "result": 47.2, "unit": "µM"}, {"measurement": "reduction of NFkappaB activity (phosphorylated NFkappaBp65)", "setting": "[2]; CLL cells, 0.1, 1, 10 μM", "result": "concentration dependent reduction"}, {"measurement": "concentration inducing the reduction of NFkappaB p65 protein", "setting": "[2]; CLL cells", "result": "twofold concentration"}, {"measurement": "effectiveness in MEC-1 (ATP content)", "setting": "MEC-1; [4]", "result": "significantly less effective"}, {"measurement": "EC50", "setting": "MEC-1; Homo sapiens, MEC1, CellTiter-Glo", "result": 53.4, "unit": "µM"}, {"measurement": "selectivity for CLL cells compared to PBMCs", "setting": "Primary CLL cells; FIG. 3, sensitivity of CLL cells vs PBMCs, 24 h", "result": "selective for CLL cells"}, {"measurement": "EC50", "setting": "Primary CLL cells; Homo sapiens, CLL cell, 24 h incubation, 0.01-100 μM, 5*10^6 cells/ml, normalized to DMSO control, read-out: AnnexinV/PI assay EC50 Primary CLL", "result": 6.7, "unit": "µM"}, {"measurement": "EC50", "setting": "caspases 3 and 7", "result": 1840, "unit": "nM"}, {"measurement": "ATP content in JVM-3", "setting": "JVM-3", "result": "reduced ATP content"}, {"measurement": "ATP content in SW480, MelJuso, HCC44, SH2 and COLO704 cell lines", "setting": "[3]", "result": "reduced ATP content"}, {"measurement": "ATP content in EHEB", "setting": "EHEB", "result": "reduced ATP content"}, {"measurement": "effectiveness in GRANTA-519 (ATP content)", "setting": "GRANTA-519; [4]", "result": "significantly less effective"}, {"measurement": "EC50", "setting": "GRANTA-519; Homo sapiens, Granta-519, CellTiter-Glo", "result": 22.2, "unit": "µM"}]}]}
